In patent US7776858B2, “Methods of treatment of chronic pain using eszopiclone” (Sepracor Inc., priority 2004, dated 2010):

Tests used:
[1] = system: subjects with insomnia related to rheumatoid arthritis; experiment: Subject Pain Severity Assessment (0 to 10 scale), clinical study of eszopiclone 3 mg vs placebo; assay type: in vivo, human
Procedure: (§1) The study was aimed at observing the effect of eszopiclone 3 mg compared to placebo on daytime function in subjects with insomnia related to rheumatoid arthritis. The study was a multicenter, randomized, double-blind, placebo controlled, parallel group study.
A total of 153 subjects were randomized. Among them, 77 received 3 mg of eszopiclone (ESZ) nightly (at bedtime) for four weeks and 76 received matching placebo (PBO). The discontinuation rates were low, 5.2% in the ESZ group and 9.2% in the PBO group. The patient population was predominantly female (87%) and Caucasian (84%). Mean age was 52, with a range of 27-64. […] In addition, subjects had insomnia symptoms including wake time after sleep onset (WASO) of ≧45 minutes, and total sleep time ≦6.5 hours. Diagnosis of rheumatoid arthritis predated the onset of insomnia symptoms.
(§2) During the double blind treatment, subjects were dosed with 3 mg eszopiclone (ESZ) or matching placebo (PBO) nightly (at bedtime) for four weeks. Data was analyzed with one-sided significance tests.

[2] = system: subjects with insomnia related to rheumatoid arthritis; experiment: Arthritis Self-Efficacy Scale, clinical study of eszopiclone 3 mg vs placebo; assay type: in vivo, human
Procedure: as §1
A total of 153 subjects were randomized. Among them, 77 received 3 mg of eszopiclone (ESZ) nightly (at bedtime) for four weeks and 76 received matching placebo (PBO). […] In addition, subjects had insomnia symptoms including wake time after sleep onset (WASO) of ≧45 minutes, and total sleep time ≦6.5 hours. Diagnosis of rheumatoid arthritis predated the onset of insomnia symptoms.
as §2

[3] = 3 mg nightly, visit 5 (Week 4), ITT, scale 0 to 10
[4] = 3 mg nightly, visit 5 (Week 4), ITT

Question: Which “effect on change from baseline to the end of study in the Subject Pain Severity Assessment” value ([1]; 3 mg nightly vs placebo) does the source give for `CN1CCN(C(=O)O[C@H]2c3nccnc3C(=O)N2c2ccc(Cl)cn2)CC1` [Eszopiclone, (+) 6-(5-chloropyrid-2-yl)-5-(4-methylpiperazin-1-yl)carbonyloxy-7-oxo-6,7-dihydro-5H-pyrrolo[3-4-b]pyrazine] here?
Answer: significant effect

Question: What about the “Subject Pain Severity Assessment, Change from Baseline, Least Squares Means (SE) [2]” value ([1]; 3 mg nightly, visit 5 (Week 4), ITT, ANCOVA) of the same molecule?
Answer: −0.5 (0.2)

Question: What about the “Subject Pain Severity Assessment, Change from Baseline, 25th Percentile” value [1, 3] of the same molecule?
Answer: −2.0

Question: And the “Subject Pain Severity Assessment, Change from Baseline, 75th Percentile” value [1, 3]?
Answer: 0.5

Question: And the “Subject Pain Severity Assessment, Change from Baseline, Maximum” value [1, 3]?
Answer: 7.0

Question: And the “Subject Pain Severity Assessment, Change from Baseline, Mean (SD)” value [1, 3]?
Answer: −0.5 (2.6)

Question: And the “Subject Pain Severity Assessment, Change from Baseline, Median” value [1, 3]?
Answer: −1.0

Question: And the “Subject Pain Severity Assessment, Change from Baseline, Minimum” value [1, 3]?
Answer: −7.0

Question: What about the “Subject Pain Severity Assessment, Observed Value, 25th Percentile” value [1, 3] of the same molecule?
Answer: 2.5

Question: What about the “Subject Pain Severity Assessment, Observed Value, 75th Percentile” value [1, 3] of the same molecule?
Answer: 7.0

Question: And the “Subject Pain Severity Assessment, Observed Value, Maximum” value [1, 3]?
Answer: 10.0

Question: And the “Subject Pain Severity Assessment, Observed Value, Mean (SD)” value [1, 3]?
Answer: 4.6 (2.7)

Question: And the “Subject Pain Severity Assessment, Observed Value, Median” value [1, 3]?
Answer: 5.0

Question: What about the “Subject Pain Severity Assessment, Observed Value, Minimum” value [1, 3] of the same molecule?
Answer: 0.0

Question: What about the “Arthritis Self-Efficacy Scale Pain subscale analyzed alone, difference” value ([2]; 3 mg nightly vs placebo) of the same molecule?
Answer: statistically significant difference

Question: What about the “Arthritis Self-Efficacy Scale Pain subscale in combination with Other Symptoms, difference” value ([2]; 3 mg nightly vs placebo) of the same molecule?
Answer: statistically significant difference

Question: And the “effect on change from baseline to end of study (Week 4) in the Overall score for the Arthritis Self-Efficacy Scale” value ([2]; 3 mg nightly vs placebo)?
Answer: significant effect

Question: And the “Arthritis Self-Efficacy Scale Function, Change from Baseline, 25th Percentile” value [2, 4]?
Answer: −1.0

Question: What about the “Arthritis Self-Efficacy Scale Function, Change from Baseline, 75th Percentile” value [2, 4] of the same molecule?
Answer: 13.5

Question: What about the “Arthritis Self-Efficacy Scale Function, Change from Baseline, Maximum” value [2, 4] of the same molecule?
Answer: 74.0

Question: What about the “Arthritis Self-Efficacy Scale Function, Change from Baseline, Mean (SD)” value [2, 4] of the same molecule?
Answer: 4.8 (15.7)

Question: And the “Arthritis Self-Efficacy Scale Function, Change from Baseline, Median” value [2, 4]?
Answer: 4.0

Question: And the “Arthritis Self-Efficacy Scale Function, Change from Baseline, Minimum” value [2, 4]?
Answer: −34.0

Question: What about the “Arthritis Self-Efficacy Scale Function, Observed Value, 25th Percentile” value [2, 4] of the same molecule?
Answer: 45.5

Question: And the “Arthritis Self-Efficacy Scale Function, Observed Value, 75th Percentile” value [2, 4]?
Answer: 83.5

Question: And the “Arthritis Self-Efficacy Scale Function, Observed Value, Maximum” value [2, 4]?
Answer: 90.0

Question: What about the “Arthritis Self-Efficacy Scale Function, Observed Value, Mean (SD)” value [2, 4] of the same molecule?
Answer: 62.0 (22.1)

Question: What about the “Arthritis Self-Efficacy Scale Function, Observed Value, Median” value [2, 4] of the same molecule?
Answer: 61.0

Question: What about the “Arthritis Self-Efficacy Scale Function, Observed Value, Minimum” value [2, 4] of the same molecule?
Answer: 13.0

Question: And the “Arthritis Self-Efficacy Scale Other Symptoms, Change from Baseline, 25th Percentile” value [2, 4]?
Answer: −2.0

Question: What about the “Arthritis Self-Efficacy Scale Other Symptoms, Change from Baseline, 75th Percentile” value [2, 4] of the same molecule?
Answer: 10.0

Question: What about the “Arthritis Self-Efficacy Scale Other Symptoms, Change from Baseline, Maximum” value [2, 4] of the same molecule?
Answer: 41.0

Question: And the “Arthritis Self-Efficacy Scale Other Symptoms, Change from Baseline, Mean (SD)” value [2, 4]?
Answer: 3.5 (10.5)

Question: What about the “Arthritis Self-Efficacy Scale Other Symptoms, Change from Baseline, Median” value [2, 4] of the same molecule?
Answer: 3.0

Question: And the “Arthritis Self-Efficacy Scale Other Symptoms, Change from Baseline, Minimum” value [2, 4]?
Answer: −26.0

Question: What about the “Arthritis Self-Efficacy Scale Other Symptoms, Observed Value, 25th Percentile” value [2, 4] of the same molecule?
Answer: 31.5

Question: And the “Arthritis Self-Efficacy Scale Other Symptoms, Observed Value, 75th Percentile” value [2, 4]?
Answer: 50.0

Question: What about the “Arthritis Self-Efficacy Scale Other Symptoms, Observed Value, Maximum” value [2, 4] of the same molecule?
Answer: 59.0

Question: And the “Arthritis Self-Efficacy Scale Other Symptoms, Observed Value, Mean (SD)” value [2, 4]?
Answer: 39.3 (12.7)

Question: What about the “Arthritis Self-Efficacy Scale Other Symptoms, Observed Value, Median” value [2, 4] of the same molecule?
Answer: 40.0

Question: What about the “Arthritis Self-Efficacy Scale Other Symptoms, Observed Value, Minimum” value [2, 4] of the same molecule?
Answer: 6.0

Question: And the “Arthritis Self-Efficacy Scale Overall, Change from Baseline, 25th Percentile” value [2, 4]?
Answer: −1.6

Question: And the “Arthritis Self-Efficacy Scale Overall, Change from Baseline, 75th Percentile” value [2, 4]?
Answer: 26.0

Question: What about the “Arthritis Self-Efficacy Scale Overall, Change from Baseline, Maximum” value [2, 4] of the same molecule?
Answer: 124.0

Question: And the “Arthritis Self-Efficacy Scale Overall, Change from Baseline, Mean (SD)” value [2, 4]?
Answer: 11.5 (29.3)

Question: And the “Arthritis Self-Efficacy Scale Overall, Change from Baseline, Median” value [2, 4]?
Answer: 12.0

Question: And the “Arthritis Self-Efficacy Scale Overall, Change from Baseline, Minimum” value [2, 4]?
Answer: −74.0

Question: What about the “Arthritis Self-Efficacy Scale Overall, Observed Value, 25th Percentile” value [2, 4] of the same molecule?
Answer: 103.0

Question: What about the “Arthritis Self-Efficacy Scale Overall, Observed Value, 75th Percentile” value [2, 4] of the same molecule?
Answer: 162.5

Question: What about the “Arthritis Self-Efficacy Scale Overall, Observed Value, Maximum” value [2, 4] of the same molecule?
Answer: 189.0

Question: What about the “Arthritis Self-Efficacy Scale Overall, Observed Value, Mean (SD)” value [2, 4] of the same molecule?
Answer: 130.9 (38.2)

Question: And the “Arthritis Self-Efficacy Scale Overall, Observed Value, Median” value [2, 4]?
Answer: 132.6

Question: What about the “Arthritis Self-Efficacy Scale Overall, Observed Value, Minimum” value [2, 4] of the same molecule?
Answer: 27.0

Question: And the “Arthritis Self-Efficacy Scale Pain and Other Symptoms, Change from Baseline, 25th Percentile” value [2, 4]?
Answer: 1.0

Question: What about the “Arthritis Self-Efficacy Scale Pain and Other Symptoms, Change from Baseline, 75th Percentile” value [2, 4] of the same molecule?
Answer: 13.0

Question: And the “Arthritis Self-Efficacy Scale Pain and Other Symptoms, Change from Baseline, Maximum” value [2, 4]?
Answer: 50.0

Question: And the “Arthritis Self-Efficacy Scale Pain and Other Symptoms, Change from Baseline, Mean (SD)” value [2, 4]?
Answer: 6.9 (16.4)

Question: And the “Arthritis Self-Efficacy Scale Pain and Other Symptoms, Change from Baseline, Median” value [2, 4]?
Answer: 6.0

Question: What about the “Arthritis Self-Efficacy Scale Pain and Other Symptoms, Change from Baseline, Minimum” value [2, 4] of the same molecule?
Answer: −46.0

Question: What about the “Arthritis Self-Efficacy Scale Pain and Other Symptoms, Observed Value, 25th Percentile” value [2, 4] of the same molecule?
Answer: 53.5

Question: And the “Arthritis Self-Efficacy Scale Pain and Other Symptoms, Observed Value, 75th Percentile” value [2, 4]?
Answer: 86.0

Question: And the “Arthritis Self-Efficacy Scale Pain and Other Symptoms, Observed Value, Maximum” value [2, 4]?
Answer: 101.0

Question: And the “Arthritis Self-Efficacy Scale Pain and Other Symptoms, Observed Value, Mean (SD)” value [2, 4]?
Answer: 68.5 (21.1)

Question: And the “Arthritis Self-Efficacy Scale Pain and Other Symptoms, Observed Value, Median” value [2, 4]?
Answer: 69.7

Question: And the “Arthritis Self-Efficacy Scale Pain and Other Symptoms, Observed Value, Minimum” value [2, 4]?
Answer: 14.0

Question: What about the “Arthritis Self-Efficacy Scale Pain, Change from Baseline, 25th Percentile” value [2, 4] of the same molecule?
Answer: −1.0

Question: What about the “Arthritis Self-Efficacy Scale Pain, Change from Baseline, 75th Percentile” value [2, 4] of the same molecule?
Answer: 10.5

Question: And the “Arthritis Self-Efficacy Scale Pain, Change from Baseline, Maximum” value [2, 4]?
Answer: 30.0

Question: What about the “Arthritis Self-Efficacy Scale Pain, Change from Baseline, Mean (SD)” value [2, 4] of the same molecule?
Answer: 3.3 (10.5)

Question: And the “Arthritis Self-Efficacy Scale Pain, Change from Baseline, Median” value [2, 4]?
Answer: 3.0

Question: And the “Arthritis Self-Efficacy Scale Pain, Change from Baseline, Minimum” value [2, 4]?
Answer: −37.0

Question: And the “Arthritis Self-Efficacy Scale Pain, Observed Value, 25th Percentile” value [2, 4]?
Answer: 22.0

Question: What about the “Arthritis Self-Efficacy Scale Pain, Observed Value, 75th Percentile” value [2, 4] of the same molecule?
Answer: 38.0

Question: What about the “Arthritis Self-Efficacy Scale Pain, Observed Value, Maximum” value [2, 4] of the same molecule?
Answer: 50.0

Question: And the “Arthritis Self-Efficacy Scale Pain, Observed Value, Median” value [2, 4]?
Answer: 28.0
